Reference: PubChem BioAssay (NCI)
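Test compounds were applied to cells in 96-well plates for 48 hours at 5 doses. GI50 marks 50% less growth. TGI: concentration producing complete growth inhibition.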

Tests used:
Assay in all cases: NCI anticancer screen, dose series, 48 h
NCI-H460 lung = system: NCI-H460 lung
NCI-H522 lung = system: NCI-H522 lung
DU-145 prostate = system: DU-145 prostate
MDA-MB-231 breast = system: MDA-MB-231 breast
CCRF-CEM leukemia = system: CCRF-CEM leukemia
U251 CNS = system: U251 CNS
HOP-62 NSCLC = system: HOP-62 NSCLC
OVCAR-3 ovarian = system: OVCAR-3 ovarian
SF-539 CNS = system: SF-539 CNS
LOX IMVI melanoma = system: LOX IMVI melanoma
MCF7 breast = system: MCF7 breast
HCC-2998 colon = system: HCC-2998 colon
HS 578T breast = system: HS 578T breast
A498 renal = system: A498 renal
MALME-3M melanoma = system: MALME-3M melanoma
NCI-H226 lung = system: NCI-H226 lung
SF-268 CNS = system: SF-268 CNS
SW-620 colon = system: SW-620 colon
SNB-19 CNS = system: SNB-19 CNS
SK-MEL-28 melanoma = system: SK-MEL-28 melanoma
OVCAR-8 ovarian = system: OVCAR-8 ovarian
IGROV1 ovarian = system: IGROV1 ovarian
CAKI-1 renal = system: CAKI-1 renal
UACC-62 melanoma = system: UACC-62 melanoma
BT-549 breast = system: BT-549 breast
SK-MEL-5 melanoma = system: SK-MEL-5 melanoma
SNB-75 CNS = system: SNB-75 CNS
SF-295 CNS = system: SF-295 CNS
OVCAR-4 ovarian = system: OVCAR-4 ovarian
A549 NSCLC = system: A549 NSCLC
NCI-H23 lung = system: NCI-H23 lung
MDA-MB-435 = system: MDA-MB-435
M14 melanoma = system: M14 melanoma
SR leukemia = system: SR leukemia
UACC-257 melanoma = system: UACC-257 melanoma
786-0 renal = system: 786-0 renal
OVCAR-5 ovarian = system: OVCAR-5 ovarian
HCT-116 colon = system: HCT-116 colon
PC-3 prostate = system: PC-3 prostate
SK-MEL-2 melanoma = system: SK-MEL-2 melanoma
SN12C renal = system: SN12C renal
ACHN renal = system: ACHN renal
RPMI-8226 leukemia = system: RPMI-8226 leukemia
K-562 leukemia = system: K-562 leukemia
T-47D breast = system: T-47D breast
MOLT-4 leukemia = system: MOLT-4 leukemia
KM12 colon = system: KM12 colon
HL-60(TB) leukemia = system: HL-60(TB) leukemia
COLO 205 colon = system: COLO 205 colon
HOP-92 NSCLC = system: HOP-92 NSCLC
TK-10 renal = system: TK-10 renal
EKVX NSCLC = system: EKVX NSCLC
UO-31 renal = system: UO-31 renal
MDA-MB-468 breast = system: MDA-MB-468 breast
SK-OV-3 ovarian = system: SK-OV-3 ovarian
HCT-15 colon = system: HCT-15 colon
RXF 393 renal = system: RXF 393 renal
HT29 colon = system: HT29 colon

Compound COc1ccccc1[C@H]1C(C(=O)c2ccc(Cl)cc2)C2(N[C@@H]1c1ccccc1)C(=O)Nc1ccccc12 (stereo partly specified) has a GI50 (NCI-H460 lung) of 1.21 µM, a TGI (NCI-H460 lung) of 2.89 µM and a GI50 (NCI-H522 lung) of 1.24 µM. The TGI (NCI-H522 lung) was 4.17 µM, the GI50 (DU-145 prostate) was 2.45 µM and the TGI (DU-145 prostate) was 24.9 µM. The GI50 (MDA-MB-231 breast) was 1.6 µM, the TGI (MDA-MB-231 breast) was 5.79 µM and the GI50 (CCRF-CEM leukemia) was 1.91 µM. The TGI (CCRF-CEM leukemia) was 8.25 µM, the GI50 (U251 CNS) was 1.81 µM and the TGI (U251 CNS) was 7.38 µM. The GI50 (HOP-62 NSCLC) was 3.86 µM, the TGI (HOP-62 NSCLC) was 14 µM and the GI50 (OVCAR-3 ovarian) was 2.19 µM. For the same compound, the TGI (OVCAR-3 ovarian) was 12.1 µM, the GI50 (SF-539 CNS) was 2.83 µM and the TGI (SF-539 CNS) was 10.5 µM. For the same compound, the GI50 (LOX IMVI melanoma) was 1.55 µM, the TGI (LOX IMVI melanoma) was 6.15 µM and the GI50 (MCF7 breast) was 1.67 µM. The TGI (MCF7 breast) was 8.88 µM, the GI50 (HCC-2998 colon) was 2.1 µM and the TGI (HCC-2998 colon) was 7.72 µM. It also gave a GI50 (HS 578T breast) of 1.67 µM, a TGI (HS 578T breast) of 10.4 µM and a GI50 (A498 renal) of 4.75 µM. It also gave a TGI (A498 renal) of 18 µM, a GI50 (MALME-3M melanoma) of 3.36 µM and a TGI (MALME-3M melanoma) of 12.1 µM. The GI50 (NCI-H226 lung) was 1.61 µM, the TGI (NCI-H226 lung) was 9.08 µM and the GI50 (SF-268 CNS) was 2.19 µM. The TGI (SF-268 CNS) was 29.8 µM, the GI50 (SW-620 colon) was 1.86 µM and the TGI (SW-620 colon) was 24.4 µM. The GI50 (SNB-19 CNS) was 3.34 µM, the TGI (SNB-19 CNS) was 61.5 µM and the GI50 (SK-MEL-28 melanoma) was 4.16 µM. For the same compound, the TGI (SK-MEL-28 melanoma) was 13.2 µM, the GI50 (OVCAR-8 ovarian) was 1.94 µM and the TGI (OVCAR-8 ovarian) was 8.55 µM. The GI50 (IGROV1 ovarian) was 1.95 µM, the TGI (IGROV1 ovarian) was 11.6 µM and the GI50 (CAKI-1 renal) was 1.23 µM. It also gave a TGI (CAKI-1 renal) of 51.5 µM, a GI50 (UACC-62 melanoma) of 1.86 µM and a TGI (UACC-62 melanoma) of 8.04 µM. The GI50 (BT-549 breast) was 1.97 µM, the TGI (BT-549 breast) was 6.57 µM and the GI50 (SK-MEL-5 melanoma) was 1.87 µM. For the same compound, the TGI (SK-MEL-5 melanoma) was 6.52 µM, the GI50 (SNB-75 CNS) was 1.13 µM and the TGI (SNB-75 CNS) was 13.2 µM. It also gave a GI50 (SF-295 CNS) of 2.39 µM, a TGI (SF-295 CNS) of 12.6 µM and a GI50 (OVCAR-4 ovarian) of 2.36 µM. For the same compound, the TGI (OVCAR-4 ovarian) was 31.8 µM, the GI50 (A549 NSCLC) was 1.99 µM and the TGI (A549 NSCLC) was 12 µM. It also gave a GI50 (NCI-H23 lung) of 1.83 µM, a TGI (NCI-H23 lung) of 8.71 µM and a GI50 (MDA-MB-435) of 1.48 µM. The TGI (MDA-MB-435) was 3.73 µM, the GI50 (M14 melanoma) was 1.81 µM and the TGI (M14 melanoma) was 7.63 µM. For the same compound, the GI50 (SR leukemia) was 1.42 µM, the TGI (SR leukemia) was 4.26 µM and the GI50 (UACC-257 melanoma) was 2.63 µM. The TGI (UACC-257 melanoma) was 14 µM, the GI50 (786-0 renal) was 2.13 µM and the TGI (786-0 renal) was 10.1 µM. The GI50 (OVCAR-5 ovarian) was 3.24 µM, the TGI (OVCAR-5 ovarian) was 19.5 µM and the GI50 (HCT-116 colon) was 1.5 µM. It also gave a TGI (HCT-116 colon) of 4.66 µM, a GI50 (PC-3 prostate) of 1.85 µM and a TGI (PC-3 prostate) of 13.6 µM. It also gave a GI50 (SK-MEL-2 melanoma) of 1.73 µM, a TGI (SK-MEL-2 melanoma) of 6.06 µM and a GI50 (SN12C renal) of 1.24 µM. For the same compound, the TGI (SN12C renal) was 2.9 µM, the GI50 (ACHN renal) was 1.99 µM and the TGI (ACHN renal) was 22.5 µM. For the same compound, the GI50 (RPMI-8226 leukemia) was 2.06 µM, the TGI (RPMI-8226 leukemia) was 21.9 µM and the GI50 (K-562 leukemia) was 1.78 µM. The TGI (K-562 leukemia) was 44.4 µM, the GI50 (T-47D breast) was 1.97 µM and the TGI (T-47D breast) was 44.1 µM. It also gave a GI50 (MOLT-4 leukemia) of 1.75 µM, a TGI (MOLT-4 leukemia) of 16.1 µM and a GI50 (KM12 colon) of 2.45 µM. The TGI (KM12 colon) was 14.6 µM, the GI50 (HL-60(TB) leukemia) was 1.42 µM and the TGI (HL-60(TB) leukemia) was 5.48 µM. The GI50 (COLO 205 colon) was 2.25 µM, the TGI (COLO 205 colon) was 9.75 µM and the GI50 (HOP-92 NSCLC) was 1.79 µM. The TGI (HOP-92 NSCLC) was 5.88 µM, the GI50 (TK-10 renal) was 3.68 µM and the TGI (TK-10 renal) was 33.2 µM. For the same compound, the GI50 (EKVX NSCLC) was 2.13 µM, the TGI (EKVX NSCLC) was 61.5 µM and the GI50 (UO-31 renal) was 1.11 µM. For the same compound, the TGI (UO-31 renal) was 12.5 µM, the GI50 (MDA-MB-468 breast) was 1.24 µM and the TGI (MDA-MB-468 breast) was 3.85 µM. The GI50 (SK-OV-3 ovarian) was 4.24 µM, the TGI (SK-OV-3 ovarian) was 55.3 µM and the GI50 (HCT-15 colon) was 1.9 µM. For the same compound, the TGI (HCT-15 colon) was 11.5 µM, the GI50 (RXF 393 renal) was 1.32 µM and the TGI (RXF 393 renal) was 3.51 µM. The GI50 (HT29 colon) was 1.49 µM and the TGI (HT29 colon) was 4.1 µM.
